How the values were obtained:
S100A4 (FSP-1) = assay: Western blot for S100A4 on whole cell lysates of IPF patient fibroblasts; format: cell-based, human; details: IPF patient fibroblasts / ATCC IPF cells, RPMI1640+10% FBS, 2 days
Protocol: (§1) Western blots for S100A4 (also know as FSP-1 or fibroblast specific protein-1) and E-Cadherin were performed on whole cell lysates (FIG. 20).

Aquaporin 5 = Aquaporin 5 immunostaining of lung tissue in bleomycin mouse model; format: in vivo; details: bleomycin and ICG-001 vs bleomycin alone
Protocol: The aquaporins are water channels expressed in a variety of cell types. Aquaporin 5 is involved in the transportation of water across the apical surface of the alveolar epithelium and the epithelia of the submucosal glands in the upper airway and nasopharynx. (Krane, C. M., P.N.A.S. 98:14192-4, 2001; Yang, F. J. Biol. Chem. 278:32173-80, 2003). Because aquaporin 5 is a marker of Type 1 (differentiated) lung epithelium, its expression was assayed in lung tissue treated with bleomycin (FIG. 22A), bleomycin and ICG-001 (FIG. 22B), and saline (FIG. 22C), using the animal model as described in Example 2 (FIG. 15), and immunostaining with an antibody specific for Aquaporin 5.

[1] = test system: bleomycin induced fibrosis; assay: Bleomycin induced murine pulmonary fibrosis model (lung sections stained for collagen, body weight, survival); format: in vivo, mouse
Protocol: Murine models of bleomycin induced fibrosis have been developed in order to study fibrotic disease progression.
There is an absence of airway epithelium in lower left compared to upper left (see arrow heads) and extensive collagen deposition (lower left). On the sixth day, either saline (upper right) or ICG-001 (5 mgs/Kg/day) was administered for 10 days after which the mice were sacrificed and sectioned. Of interest is the upper right (saline treatment) showing lack of normal airway epithelialization, extensive collagen deposition and intra-airway hypercellularity (fibroblasts and inflammatory influx).
FIGS. 16 and 17 show RT-PCR data for S100A4 (FIG. 16) and collagen1A2 (FIG. 17), which are increased in the bleomycin treated mice (treated with saline control).
The procedures were performed using the animal model as described in Example 2 (FIG. 15), and the sectioned lungs were stained for collagen.

[2] = test system: TCF/β-Catenin driven β-Galactosidase expression; assay: TCF/β-catenin driven β-galactosidase reporter in lungs of bleomycin-treated Bat-Gal transgenic mice (X-Gal staining); format: in vivo, mouse; details: intratracheal bleomycin, 5 mg/Kg/day via minipump (subcutaneously)
Protocol: Using this murine model of pulmonary fibrosis in transgenic Bat-Gal mice, ICG-001 (5 mg/Kg/day, administered via minipump) blocked >95% of bleomycin-induced TCF/O-catenin transcription.
These mice have a Beta-Galactosidase transgene driven by a TCF/Catenin driven promoter (i.e. a read out for activated Wnt/catenin signaling). The mice were given intratracheal saline or bleomycin and either treated with ICG-001 (5 mgs/Kg/day subcutaneously) or saline as vehicle control. The mice were sacrificed and the lungs sectioned and stained with X-Gal (blue color) A) intratracheal bleo+saline. B) intracheal bleo+ICG-001 C) saline+saline.
The dose was selected because ICG-001 reduces TCF/β-Catenin driven β-Galactosidase expression >95% at 5 mgs/Kg/day.

E-Cadherin = assay: Western blot for E-Cadherin on whole cell lysates of IPF patient fibroblasts; format: cell-based, human; details: RPMI1640+10% FBS, 2 days
Protocol: as §1

[3] = C57/B16 mice, bleomycin 5 days, then 5 mgs/Kg/day for 10 days
[4] = bleomycin and ICG-001 vs bleomycin
[5] = bleomycin model, 5 mg/Kg/day via minipump

## O=C1[C@H](Cc2ccc(O)cc2)N2C(=O)CCN(C(=O)NCc3ccccc3)[C@H]2CN1Cc1cccc2ccccc12 [ICG-001]
S100A4 (FSP-1)
  S100A4 expression (Western blot): decreased
Aquaporin 5
  aquaporin 5 expression in lung tissue (immunostaining): greatly increased
[1]; [3]
  airway appearance in trichrome stained lung sections: essential normal
  body weight: regained normal body weight
  collagen levels in trichrome stained lung sections: normal collagen levels
[1]; C57/B16 mice, bleomycin 5 days, then 5 mgs/Kg/day for 10 days, untreated controls did not survive
  survival: survived
[1]; [4]
  alveolar fibrosis (lungs stained for collagen): prevented
  interstitial fibrosis (lungs stained for collagen): prevented
[1]; [5]
  disease progression, as judged by mortality, histopathology and endogenous gene expression: not only halted but reversed
  mortality: reduced
[1]; bleomycin model, 25 days of treatment
  fibrosis over the 25 days of treatment: reversed fibrosis
[2]
  block of bleomycin-induced TCF/β-catenin transcription (β-Galactosidase expression): > 95%
E-Cadherin
  E-cadherin expression (Western blot; also mRNA level): increased

Source: US20080242669A1, “METHODS RELATING TO THE TREATMENT OF FIBROTIC DISORDERS” (UNIVERSITY OF WASHINGTON, priority 2005, published 2008)
